Where two headings read alike, the source gives them in different places.
Experiments:
[1] = test system: DMARD-refractory active RA; test: Study of masitinib in combination with MTX in DMARD-refractory active RA; assay type: in vivo, Human
Experimental: A smaller second study was also conducted to evaluate the safety and efficacy of masitinib in combination with MTX in the treatment of DMARD-refractory active RA. […] (1) MTX; (2) any DMARD including anti-TNFα if patients previously failed MTX; or (3) MTX in combination with any DMARD including anti-TNFα.

c-kit = details: cited from earlier work
Lyn = Lyn (Homo sapiens, UniProt P07948); details: cited from earlier work
Sequence of Lyn (P07948 whole entry): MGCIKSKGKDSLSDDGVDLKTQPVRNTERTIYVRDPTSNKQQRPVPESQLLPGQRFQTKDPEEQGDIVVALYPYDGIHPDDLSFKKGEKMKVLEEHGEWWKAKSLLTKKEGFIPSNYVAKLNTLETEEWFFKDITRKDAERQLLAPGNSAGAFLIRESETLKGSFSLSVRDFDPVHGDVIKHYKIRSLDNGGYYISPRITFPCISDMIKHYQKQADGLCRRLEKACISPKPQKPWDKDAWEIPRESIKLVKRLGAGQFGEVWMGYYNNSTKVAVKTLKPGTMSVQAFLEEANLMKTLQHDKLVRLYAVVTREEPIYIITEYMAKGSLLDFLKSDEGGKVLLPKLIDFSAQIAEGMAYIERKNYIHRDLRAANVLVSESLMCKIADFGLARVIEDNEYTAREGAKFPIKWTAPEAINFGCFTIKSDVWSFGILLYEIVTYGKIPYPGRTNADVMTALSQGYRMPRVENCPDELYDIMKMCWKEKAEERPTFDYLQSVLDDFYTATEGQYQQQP

ABL = ABL (Homo sapiens, UniProt P00519); details: at therapeutic doses; cited from earlier work
Sequence of ABL (P00519 whole entry): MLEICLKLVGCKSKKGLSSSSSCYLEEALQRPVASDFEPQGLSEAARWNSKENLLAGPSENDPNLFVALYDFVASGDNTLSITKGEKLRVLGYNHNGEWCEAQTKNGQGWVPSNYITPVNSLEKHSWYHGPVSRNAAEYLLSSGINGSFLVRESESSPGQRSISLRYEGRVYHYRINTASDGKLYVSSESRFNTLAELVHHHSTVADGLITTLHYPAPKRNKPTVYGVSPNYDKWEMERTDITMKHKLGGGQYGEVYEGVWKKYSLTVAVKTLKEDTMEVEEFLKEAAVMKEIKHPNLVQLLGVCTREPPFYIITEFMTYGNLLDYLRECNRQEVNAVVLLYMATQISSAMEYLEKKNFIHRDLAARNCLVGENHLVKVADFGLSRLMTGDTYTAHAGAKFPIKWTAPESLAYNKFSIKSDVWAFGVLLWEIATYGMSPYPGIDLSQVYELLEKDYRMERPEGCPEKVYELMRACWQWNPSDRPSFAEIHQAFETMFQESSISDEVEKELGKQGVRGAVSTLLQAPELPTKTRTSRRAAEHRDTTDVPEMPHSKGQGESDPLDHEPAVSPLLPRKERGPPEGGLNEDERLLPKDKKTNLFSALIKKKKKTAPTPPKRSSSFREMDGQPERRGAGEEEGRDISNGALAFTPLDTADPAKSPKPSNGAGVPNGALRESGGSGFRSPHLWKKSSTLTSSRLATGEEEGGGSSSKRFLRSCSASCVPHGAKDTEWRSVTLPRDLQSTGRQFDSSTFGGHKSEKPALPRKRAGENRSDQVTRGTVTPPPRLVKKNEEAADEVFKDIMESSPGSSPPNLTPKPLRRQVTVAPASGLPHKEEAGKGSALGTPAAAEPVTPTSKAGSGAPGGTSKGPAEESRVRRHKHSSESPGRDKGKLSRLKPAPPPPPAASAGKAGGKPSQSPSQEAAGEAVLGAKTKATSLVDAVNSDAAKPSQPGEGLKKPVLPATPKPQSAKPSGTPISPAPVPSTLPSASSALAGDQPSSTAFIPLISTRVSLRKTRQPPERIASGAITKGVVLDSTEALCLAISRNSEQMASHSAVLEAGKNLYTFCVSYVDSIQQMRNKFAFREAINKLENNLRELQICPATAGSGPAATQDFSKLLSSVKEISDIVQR

[2] = test system: cell lines dependent on c-Kit signaling; details: cited from earlier work
[3] = week 12, total ITT population (n=8)
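For ALAT in the patient with hepatic disorder in this document: Open-label phase 2a trial, oral dosing twice daily, incidence of drug-related AEs (>4%) by intensity per Common Toxicity Criteria v3.0, initial 12-week and extension phases.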
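For ASAT in the patient with hepatic disorder in this document: Open-label phase 2a trial, oral dosing twice daily, incidence of drug-related AEs (>4%) by intensity per Common Toxicity Criteria v3.0, initial 12-week and extension phases.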
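For Treatment time to occurrence of severe transaminases increase AE in this document: Open-label phase 2a trial, oral dosing twice daily, incidence of drug-related AEs (>4%) by intensity per Common Toxicity Criteria v3.0, initial 12-week and extension phases.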
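For alkaline phosphatase in the patient with hepatic disorder in this document: Open-label phase 2a trial, oral dosing twice daily, incidence of drug-related AEs (>4%) by intensity per Common Toxicity Criteria v3.0, initial 12-week and extension phases.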

Experimental for adults with active RA: Safety was assessed by occurrence of adverse events (AE), SAEs, and monitoring biochemical, haematological and urinalysis parameters during the study period, with toxicity graded according to the Common Toxicity Criteria version 3.0.

Structure (SMILES): Cc1ccc(NC(=O)c2ccc(CN3CCN(C)CC3)cc2)cc1Nc1nc(-c2cccnc2)cs1 [masitinib, 4-(4-methylpiperazin-1-ylmethyl)-N-[4-methyl-3-(4-pyridin-3ylthiazol-2-ylamino)phenyl]benzamide]
- Patients achieving ACR70 at week 4 maintained up to week 12 ([1]; 6 mg/kg/day, had failed anti-TNFα): One
- Patients achieving ACR20 at week 8 through 12 ([1]; 3 of 8 patients evaluable): One
- Patients reaching ACR20 at week 12 ([1]; 3 of 8 patients evaluable): One
- Patients with CRP score improvement of between 25 and 50% ([1]; week 12): two
- Patients with CRP improvement greater than 50% ([1]; week 12, 6 mg/kg/day): one
- Asthenia assessment change (mean) [1, 3]: −19.6%
- HAQ assessment improvement [1, 3]: 29.5%
- Hamilton Score improvement [1, 3]: 75.7%
- Improvement of general patient health [1, 3]: +92.2%
- Mean FIS Physical and Social score [1, 3]: slightly decreased
- Pain assessment change (mean) [1, 3]: −72.2%
- ALAT in the patient with hepatic disorder (adults with active RA; 6 mg/kg/day, one patient): 188
- ASAT in the patient with hepatic disorder (adults with active RA; 6 mg/kg/day, one patient): 122
- Treatment time to occurrence of severe transaminases increase AE (adults with active RA; 6 mg/kg/day, one patient): 14 days
- alkaline phosphatase in the patient with hepatic disorder (adults with active RA; 6 mg/kg/day, one patient): 635
- Suspected AE: Aphthous Stomatitis (adults with active RA; Extension phase, All (n = 21)): 1 (4.8%)
- Suspected AE: Asthenia (adults with active RA; Extension phase, All (n = 21)): 1 (4.8%)
- Suspected AE: Bronchopneumopathy (adults with active RA; Extension phase, All (n = 21)): 1 (4.8%)
- Suspected AE: Eczema (adults with active RA; Extension phase, All (n = 21)): 1 (4.8%)
- Suspected AE: Edema - All (adults with active RA; Extension phase, All (n = 21)): 2 (9.5%)
- Suspected AE: Gastroenteritis (adults with active RA; Extension phase, All (n = 21)): 1 (4.8%)
- Suspected AE: Leukopenia (adults with active RA; Extension phase, All (n = 21)): 1 (4.8%)
- Suspected AE: Liver Disorder (adults with active RA; Extension phase, All (n = 21)): 1 (4.8%)
- Suspected AE: Nasopharyngitis (adults with active RA; Extension phase, All (n = 21)): 1 (4.8%)
- Suspected AE: Neutrophil Count Decreased (adults with active RA; Extension phase, All (n = 21)): 1 (4.8%)
- Suspected AE: Onychoclasis (adults with active RA; Extension phase, All (n = 21)): 1 (4.8%)
- Suspected AE: Photosensitivity Reaction (adults with active RA; Extension phase, All (n = 21)): 1 (4.8%)
- Suspected AE: Pleural Effusion (adults with active RA; Extension phase, All (n = 21)): 1 (4.8%)
- Suspected AE: Pyrexia (adults with active RA; Extension phase, All (n = 21)): 1 (4.8%)
- Suspected AE: Rheumatoid Arthritis (adults with active RA; Extension phase, All (n = 21)): 1 (4.8%)
- Suspected AE: Rhinitis (adults with active RA; Extension phase, All (n = 21)): 1 (4.8%)
- Suspected AE: Vertigo (adults with active RA; Extension phase, All (n = 21)): 1 (4.8%)
- Subjects with At least one suspected AE (adults with active RA; Extension phase, Mild): 4 (19.0%)
- Suspected AE: Aphthous Stomatitis (adults with active RA; Extension phase, Mild): 1 (4.8%)
- Suspected AE: Asthenia (adults with active RA; Extension phase, Mild): 1 (4.8%)
- Suspected AE: Eczema (adults with active RA; Extension phase, Mild): 1 (4.8%)
- Suspected AE: Gastroenteritis (adults with active RA; Extension phase, Mild): 1 (4.8%)
- Suspected AE: Nasopharyngitis (adults with active RA; Extension phase, Mild): 1 (4.8%)
- Suspected AE: Neutrophil Count Decreased (adults with active RA; Extension phase, Mild): 1 (4.8%)
- Suspected AE: Onychoclasis (adults with active RA; Extension phase, Mild): 1 (4.8%)
- Suspected AE: Photosensitivity Reaction (adults with active RA; Extension phase, Mild): 1 (4.8%)
- Suspected AE: Pyrexia (adults with active RA; Extension phase, Mild): 1 (4.8%)
- Suspected AE: Rhinitis (adults with active RA; Extension phase, Mild): 1 (4.8%)
- Subjects with At least one suspected AE (adults with active RA; Extension phase, Moderate): 3 (14.3%)
- Suspected AE: Edema - All (adults with active RA; Extension phase, Moderate): 2 (9.5%)
- Suspected AE: Leukopenia (adults with active RA; Extension phase, Moderate): 1 (4.8%)
- Suspected AE: Vertigo (adults with active RA; Extension phase, Moderate): 1 (4.8%)
- Suspected AE: Bronchopneumopathy (adults with active RA; Extension phase, Severe): 1 (4.8%)
- Suspected AE: Liver Disorder (adults with active RA; Extension phase, Severe): 1 (4.8%)
- Suspected AE: Pleural Effusion (adults with active RA; Extension phase, Severe): 1 (4.8%)
- Suspected AE: Rheumatoid Arthritis (adults with active RA; Extension phase, Severe): 1 (4.8%)
- Suspected AE: Abdominal Pain (adults with active RA; Initial Phase, All (n = 43)): 2 (4.7%)
- Suspected AE: Abdominal Pain Upper (adults with active RA; Initial Phase, All (n = 43)): 5 (11.6%)
- Suspected AE: Alopecia (adults with active RA; Initial Phase, All (n = 43)): 2 (4.7%)
- Suspected AE: Asthenia (adults with active RA; Initial Phase, All (n = 43)): 5 (11.6%)
- Suspected AE: Blood Creatinine Increased (adults with active RA; Initial Phase, All (n = 43)): 2 (4.7%)
- Suspected AE: Cough (adults with active RA; Initial Phase, All (n = 43)): 2 (4.7%)
- Suspected AE: Diarrhea (adults with active RA; Initial Phase, All (n = 43)): 8 (18.6%)
- Suspected AE: Dry Mouth (adults with active RA; Initial Phase, All (n = 43)): 2 (4.7%)
- Suspected AE: Dyspnoea (adults with active RA; Initial Phase, All (n = 43)): 3 (7.0%)
- Suspected AE: Edema - All (adults with active RA; Initial Phase, All (n = 43)): 11 (25.6%)
- Suspected AE: Gastroenteritis (adults with active RA; Initial Phase, All (n = 43)): 2 (4.7%)
- Suspected AE: Headache (adults with active RA; Initial Phase, All (n = 43)): 6 (14.0%)
- Suspected AE: Herpes Simplex (adults with active RA; Initial Phase, All (n = 43)): 3 (7.0%)
- Suspected AE: Hyperthermia (adults with active RA; Initial Phase, All (n = 43)): 2 (4.7%)
- Suspected AE: Nausea (adults with active RA; Initial Phase, All (n = 43)): 10 (23.3%)
- Suspected AE: Petechiae (adults with active RA; Initial Phase, All (n = 43)): 2 (4.7%)
- Suspected AE: Pyrexia (adults with active RA; Initial Phase, All (n = 43)): 3 (7.0%)
- Suspected AE: Rash - All (adults with active RA; Initial Phase, All (n = 43)): 13 (30.2%)
- Suspected AE: Vomiting (adults with active RA; Initial Phase, All (n = 43)): 5 (11.6%)
- Suspected AE: Weight Decreased (adults with active RA; Initial Phase, All (n = 43)): 3 (7.0%)
- Subjects with At least one suspected AE (adults with active RA; Initial Phase, Mild): 29 (67.4%)
- Suspected AE: Abdominal Pain (adults with active RA; Initial Phase, Mild): 1 (2.3%)
- Suspected AE: Abdominal Pain Upper (adults with active RA; Initial Phase, Mild): 4 (9.3%)
- Suspected AE: Alopecia (adults with active RA; Initial Phase, Mild): 2 (4.7%)
- Suspected AE: Blood Creatinine Increased (adults with active RA; Initial Phase, Mild): 1 (2.3%)
- Suspected AE: Cough (adults with active RA; Initial Phase, Mild): 1 (2.3%)
- Suspected AE: Diarrhea (adults with active RA; Initial Phase, Mild): 5 (11.6%)
- Suspected AE: Dry Mouth (adults with active RA; Initial Phase, Mild): 1 (2.3%)
- Suspected AE: Dyspnoea (adults with active RA; Initial Phase, Mild): 1 (2.3%)
- Suspected AE: Edema - All (adults with active RA; Initial Phase, Mild): 2 (4.7%)
- Suspected AE: Headache (adults with active RA; Initial Phase, Mild): 4 (9.3%)
- Suspected AE: Herpes Simplex (adults with active RA; Initial Phase, Mild): 2 (4.7%)
- Suspected AE: Nausea (adults with active RA; Initial Phase, Mild): 6 (14.0%)
- Suspected AE: Petechiae (adults with active RA; Initial Phase, Mild): 1 (2.3%)
- Suspected AE: Pyrexia (adults with active RA; Initial Phase, Mild): 1 (2.3%)
- Suspected AE: Rash - All (adults with active RA; Initial Phase, Mild): 7 (16.3%)
- Suspected AE: Vomiting (adults with active RA; Initial Phase, Mild): 1 (2.3%)
- Suspected AE: Weight Decreased (adults with active RA; Initial Phase, Mild): 2 (4.7%)
- Subjects with At least one suspected AE (adults with active RA; Initial Phase, Moderate): 27 (62.8%)
- Suspected AE: Abdominal Pain Upper (adults with active RA; Initial Phase, Moderate): 1 (2.3%)
- Suspected AE: Asthenia (adults with active RA; Initial Phase, Moderate): 4 (9.3%)
- Suspected AE: Blood Creatinine Increased (adults with active RA; Initial Phase, Moderate): 1 (2.3%)
- Suspected AE: Cough (adults with active RA; Initial Phase, Moderate): 1 (2.3%)
- Suspected AE: Diarrhea (adults with active RA; Initial Phase, Moderate): 2 (4.7%)
- Suspected AE: Dyspnoea (adults with active RA; Initial Phase, Moderate): 1 (2.3%)
- Suspected AE: Edema - All (adults with active RA; Initial Phase, Moderate): 6 (14.0%)
- Suspected AE: Gastroenteritis (adults with active RA; Initial Phase, Moderate): 2 (4.7%)
- Suspected AE: Headache (adults with active RA; Initial Phase, Moderate): 2 (4.7%)
- Suspected AE: Herpes Simplex (adults with active RA; Initial Phase, Moderate): 1 (2.3%)
- Suspected AE: Hyperthermia (adults with active RA; Initial Phase, Moderate): 1 (2.3%)
- Suspected AE: Nausea (adults with active RA; Initial Phase, Moderate): 5 (11.6%)
- Suspected AE: Petechiae (adults with active RA; Initial Phase, Moderate): 1 (2.3%)
- Suspected AE: Pyrexia (adults with active RA; Initial Phase, Moderate): 1 (2.3%)
- Suspected AE: Rash - All (adults with active RA; Initial Phase, Moderate): 8 (18.6%)
- Suspected AE: Vomiting (adults with active RA; Initial Phase, Moderate): 4 (9.3%)
- Suspected AE: Weight Decreased (adults with active RA; Initial Phase, Moderate): 1 (2.3%)
- Suspected AE: Abdominal Pain (adults with active RA; Initial Phase, Severe): 1 (2.3%)
- Suspected AE: Asthenia (adults with active RA; Initial Phase, Severe): 1 (2.3%)
- Suspected AE: Diarrhea (adults with active RA; Initial Phase, Severe): 1 (2.3%)
- Suspected AE: Dry Mouth (adults with active RA; Initial Phase, Severe): 1 (2.3%)
- Suspected AE: Dyspnoea (adults with active RA; Initial Phase, Severe): 1 (2.3%)
- Suspected AE: Edema - All (adults with active RA; Initial Phase, Severe): 3 (7.0%)
- Suspected AE: Hyperthermia (adults with active RA; Initial Phase, Severe): 1 (2.3%)
- Suspected AE: Pyrexia (adults with active RA; Initial Phase, Severe): 1 (2.3%)
- Early study discontinuation: Adverse event (adults with active RA; Total population, of 16 discontinued): 13/16
- Median onset time of edematous episodes (adults with active RA; after first drug intake or dose increase): 28 days
- Incidence of skin rash, nausea, vomiting or diarrhea (adults with active RA; after week 12 (extension phase, n = 21)): no incidence
- Decrease in occurrence of edema (adults with active RA; extension phase versus initial phase): > 60%
- Average time within which edematous episodes abated (adults with active RA; human, in vivo): ≤ 16 days
- Doses associated with the majority of severe AEs (adults with active RA; in vivo): ≥ 7.5 mg/kg/day
- Early study discontinuation: Adverse event (adults with active RA; initial dosage 3 mg/kg/day, of 7 discontinued): 6/7
- Early study discontinuation: Adverse event (adults with active RA; initial dosage 6 mg/kg/day, of 9 discontinued): 7/9
- Patients discontinuing treatment with occurrence of AEs as main reason (adults with active RA; initial phase, of 43 patients): 30%
- Deaths during the study (adults with active RA; n = 43): no deaths occurred
- Patients with non-fatal SAE of severe intensity suspected to be related to masitinib (or not assessable) (adults with active RA; n = 43, skin rash, pleural effusion, pneumonia, RA flare up): 9%
- Time to resolution of severe transaminases increase AE after drug withdrawal (adults with active RA; one patient, no reoccurrence following reintroduction): ≤ 4 weeks
- Effect on wild-type and juxtamembrane-mutated c-Kit receptors (c-kit): strong inhibitory effect
- Inhibition of c-kit (c-kit): selectively inhibiting
- Inhibition of Lyn (Lyn): selectively inhibiting
- Inhibition of ABL (ABL): without inhibiting
- Effect on cell lines dependent on c-Kit signaling [2]: cell cycle arrest and apoptosis

Reference: patent US20130267484A1, “TREATMENT OF RHEUMATOID ARTHRITIS WITH MASITINIB” (AB SCIENCE, priority 2010, published 2013)
